Results from paper PMC7932537, “Quantitative profiling of protease specificity” (PLoS Computational Biology, 2021).

What was measured:
MMP-2 = test: Substrate phage display with NGS: relative probability (RP) of P3-P1' tetramer clusters; type: biochemical, human; conditions: for relative probability (RP) of matching tetramer: P3-P1' tetramer matching the MS detected MMP2 cleavage sequence, RP_above_4.5; for normalized RP - MMP2: normalized RP of matching tetramer
MMP-9 = test: as above; type: biochemical, human; conditions: for normalized RP - MMP9: normalized RP of matching tetramer
[1] = RP of matching tetramer, common MMP2-9 selectome
[2] = MMP9, RP of the P3-P1' tetramer matching the MS detected cleavage, RP above 4.7, substrate phage display with NGS
[3] = RP of matching tetramer, common MMP2-9 selectome, RP above KL threshold
[4] = RP of the P3-P1' tetramer cluster contained in the hexamer, 200 nM MMP-2, 2 h, 37°C, two rounds of selection
[5] = MMP9, RP of the P3-P1' tetramer contained in the hexamer substrate (substrate phage display, NGS)
[6] = RP of the P3-P1' tetramer, MMP2 substrate phage display/NGS, tetramers of physiologic MEROPS substrates common to MMP2 and MMP9
[7] = RP of the P3-P1' tetramer, MMP9 substrate phage display/NGS, tetramers of physiologic MEROPS substrates common to MMP2 and MMP9
[8] = RP according to MMP2, P3-P1' tetramer of unique physiologic MMP2 substrates from MEROPS
[9] = MMP2, RP of matching P3-P1' tetramer, common set of MMP2-9 selectome, RP above KL threshold
[10] = MMP9, RP of matching P3-P1' tetramer, common set of MMP2-9 selectome
[11] = RP of matching tetramer, unique part of MMP2 selectome, RP above KL threshold
[12] = RP of matching tetramer, unique part of MMP2 selectome
[13] = tetramer projected onto MMP-9 cleavage sites determined by Prudova et al. (2010)
[14] = RP according to MMP9, P3-P1' tetramer of unique physiologic MMP9 substrates from MEROPS
[15] = RP of the P3-P1' tetramer in MMP-9 substrate phage display/NGS, tetramer annotation of MMP-9 cleavage sites (octamers P4-P4') collected in MEROPS database
[16] = rank of the P3-P1' tetramer by RP in MMP-9 substrate phage display/NGS, tetramer annotation of MMP-9 cleavage sites (octamers P4-P4') collected in MEROPS database

**Q.** Which results are given for PMFI?
**A.** relative probability (RP) (acc.to MMP2) (MMP-2; [1]): 8.26; relative probability (RP) (MMP-9; [2]): 35.87; relative probability (RP) (acc.to MMP9) (MMP-9; [3]): 35.87

**Q.** What does the source list for VPQEWR?
**A.** relative probability (RP) (MMP-2; [4]): 10.5981; relative probability (RP) (MMP-9; [5]): 10.1914

**Q.** For PEAI, which “relative probability (RP) (acc.to MMP2)” value (MMP-2; [6]) is on record?
**A.** 22.52

**Q.** What about the “relative probability (RP) (acc.to MMP9)” value (MMP-9; [7]) of the same substance?
**A.** 36.36

**Q.** Which “MMP2 relative probability (RP)” value (MMP-2; MMP2 tetramers from unique substrates, unrounded values) does the source give for ITGL here?
**A.** 4.832

**Q.** What about the “Relative probability (RP) rank” value (MMP-2; [8]) of the same substance?
**A.** 7648

**Q.** And the “relative probability (RP)” value (MMP-2; [8])?
**A.** 4.83

**Q.** What about the “corresponding MMP9 relative probability (RP)” value (MMP-9; MMP2 tetramers from unique substrates, RP of same tetramer for MMP9) of the same substance?
**A.** 0.3587

**Q.** How did the “relative probability (RP)” value (MMP-2; [4]) turn out when VSALSS was run?
**A.** 32.3417

**Q.** And the “relative probability (RP)” value (MMP-9; [5])?
**A.** 28.865

**Q.** Which “relative probability (RP) (acc.to MMP2)” value (MMP-2; [6]) does the source give for PPGA here?
**A.** 0

**Q.** What about the “relative probability (RP) (acc.to MMP9)” value (MMP-9; [7]) of the same substance?
**A.** 0.07

**Q.** What does the source list for AAAI?
**A.** relative probability (RP) (acc.to MMP2) (MMP-2; [9]): 25.49; relative probability (RP) of matching tetramer (MMP-2): 25.49; relative probability (RP) (acc.to MMP9) (MMP-9; [10]): 15.73

**Q.** LFGL was tested. Which “relative probability (RP) (acc.to MMP2)” value (MMP-2; [9]) did it give?
**A.** 12.87

**Q.** And the “relative probability (RP) of matching tetramer” value (MMP-2)?
**A.** 12.87

**Q.** What about the “relative probability (RP) (acc.to MMP2)” value (MMP-2; [1]) of the same substance?
**A.** 12.87

**Q.** And the “relative probability (RP) (acc.to MMP9)” value (MMP-9; [10])?
**A.** 14.17

**Q.** What about the “relative probability (RP)” value (MMP-9; [2]) of the same substance?
**A.** 14.17

**Q.** What about the “relative probability (RP) (acc.to MMP9)” value (MMP-9; [3]) of the same substance?
**A.** 14.17

**Q.** Which “relative probability (RP) (acc.to MMP2)” value (MMP-2; [6]) does the source give for ASDY here?
**A.** 0.78

**Q.** And the “relative probability (RP) (acc.to MMP9)” value (MMP-9; [7])?
**A.** 0.38

**Q.** With PHPRLL as the substance, how does the “relative probability (RP)” value (MMP-2; [4]) read?
**A.** 23.2612

**Q.** What about the “relative probability (RP)” value (MMP-9; [5]) of the same substance?
**A.** 38.6219

**Q.** With PANA as the substance, how does the “relative probability (RP) of matching tetramer” value (MMP-2) read?
**A.** 17.73

**Q.** What about the “relative probability (RP) (acc.to MMP2)” value (MMP-2; [11]) of the same substance?
**A.** 17.73

**Q.** What about the “normalized RP - MMP2” value (MMP-2; unique part of MMP2 selectome) of the same substance?
**A.** 0.4855

**Q.** And the “relative probability (RP) (acc.to MMP9)” value (MMP-9; [12])?
**A.** 2.68

**Q.** What about the “normalized RP - MMP9” value (MMP-9; unique part of MMP2 selectome) of the same substance?
**A.** 0.05116

**Q.** How did the “relative probability (RP)” value (MMP-9; [2]) turn out when IYYI was run?
**A.** 14.54

**Q.** How did the “relative probability (RP) (acc.to MMP2)” value (MMP-2; [6]) turn out when PVSL was run?
**A.** 32.5

**Q.** And the “relative probability (RP) (acc.to MMP9)” value (MMP-9; [7])?
**A.** 42.36

**Q.** With PYGIKG as the substance, how does the “relative probability (RP)” value (MMP-2; [4]) read?
**A.** 28.2788

**Q.** And the “relative probability (RP)” value (MMP-9; [5])?
**A.** 49.5245

**Q.** What does the source list for PNSM?
**A.** relative probability (RP) (acc.to MMP2) (MMP-2; [9]): 14.95; relative probability (RP) of matching tetramer (MMP-2): 14.95; relative probability (RP) (acc.to MMP2) (MMP-2; [1]): 14.95; relative probability (RP) (acc.to MMP9) (MMP-9; [10]): 27.58; relative probability (RP) (MMP-9; [2]): 27.58; relative probability (RP) (acc.to MMP9) (MMP-9; [3]): 27.58

**Q.** PQGL was tested. Which “relative probability (RP) (acc.to MMP2)” value (MMP-2; [6]) did it give?
**A.** 33.52

**Q.** What about the “relative probability (RP) (acc.to MMP9)” value (MMP-9; [7]) of the same substance?
**A.** 47.86

**Q.** PFPL [P3-P1' tetramer cluster] was tested. Which “relative probability (RP)” value (MMP-9; [13]) did it give?
**A.** 49.54

**Q.** NAQL was tested. Which “relative probability (RP) of matching tetramer” value (MMP-2) did it give?
**A.** 9.69

**Q.** And the “relative probability (RP) (acc.to MMP2)” value (MMP-2; [11])?
**A.** 9.69

**Q.** And the “normalized RP - MMP2” value (MMP-2; unique part of MMP2 selectome)?
**A.** 0.2653

**Q.** What about the “relative probability (RP) (acc.to MMP9)” value (MMP-9; [12]) of the same substance?
**A.** 0

**Q.** And the “normalized RP - MMP9” value (MMP-9; unique part of MMP2 selectome)?
**A.** 0

**Q.** What does the source list for PEGL?
**A.** relative probability (RP) (acc.to MMP2) (MMP-2; [6]): 29.5; relative probability (RP) (acc.to MMP9) (MMP-9; [7]): 39.41

**Q.** Which results are given for DGPVSF?
**A.** relative probability (RP) (MMP-2; [4]): 24.4524; relative probability (RP) (MMP-9; [5]): 25.1636

**Q.** PKGE [P3-P1' tetramer cluster] was tested. Which “relative probability (RP)” value (MMP-9; [13]) did it give?
**A.** 0

**Q.** IIGL was tested. Which “Relative probability (RP) rank” value (MMP-9; [14]) did it give?
**A.** 15777

**Q.** And the “relative probability (RP)” value (MMP-9; [14])?
**A.** 0.98

**Q.** For QGPAAI, which “relative probability (RP)” value (MMP-2; [4]) is on record?
**A.** 32.0972

**Q.** What about the “relative probability (RP)” value (MMP-9; [5]) of the same substance?
**A.** 46.1642

**Q.** With AKRF as the substance, how does the “relative probability (RP)” value (MMP-9; tetramer annotation of MMP-9 cleavage sites in physiologic substrates from MEROPS) read?
**A.** 0.43

**Q.** ETPRPW was tested. Which “relative probability (RP)” value (MMP-2; [4]) did it give?
**A.** 32.1109

**Q.** What about the “relative probability (RP)” value (MMP-9; [5]) of the same substance?
**A.** 41.1124

**Q.** IGTY was tested. Which “relative probability (RP) of matching tetramer” value (MMP-2) did it give?
**A.** 5.18

**Q.** What about the “relative probability (RP) (acc.to MMP2)” value (MMP-2; [11]) of the same substance?
**A.** 5.18

**Q.** And the “normalized RP - MMP2” value (MMP-2; unique part of MMP2 selectome)?
**A.** 0.1418

**Q.** And the “relative probability (RP) (acc.to MMP9)” value (MMP-9; [12])?
**A.** 0.06

**Q.** What about the “normalized RP - MMP9” value (MMP-9; unique part of MMP2 selectome) of the same substance?
**A.** 0.001145

**Q.** VRNI was tested. Which “relative probability (RP) (acc.to MMP2)” value (MMP-2; [9]) did it give?
**A.** 25.21

**Q.** And the “relative probability (RP) of matching tetramer” value (MMP-2)?
**A.** 25.21

**Q.** What about the “relative probability (RP) (acc.to MMP2)” value (MMP-2; [1]) of the same substance?
**A.** 25.21

**Q.** What about the “relative probability (RP) (acc.to MMP9)” value (MMP-9; [10]) of the same substance?
**A.** 38.1

**Q.** What about the “relative probability (RP)” value (MMP-9; [2]) of the same substance?
**A.** 38.1

**Q.** What about the “relative probability (RP) (acc.to MMP9)” value (MMP-9; [3]) of the same substance?
**A.** 38.1

**Q.** Which “relative probability (RP)” value (MMP-9; [15]) does the source give for AAAA here?
**A.** 0.34

**Q.** What about the “Relative probability (RP) rank” value (MMP-9; [16]) of the same substance?
**A.** 31285

**Q.** Which relative_probability (MMP-9; tetramer clusters unique to the MMP-9 selectome, MMP-9 RP) does the source give for PWMI [P3-P1' tetramer cluster] here?
**A.** 41.91

**Q.** What does the source list for AAAY?
**A.** relative probability (RP) (MMP-9; [15]): 22.04; Relative probability (RP) rank (MMP-9; [16]): 2070

**Q.** What does the source list for AAAK?
**A.** relative probability (RP) (MMP-9; [15]): 0; Relative probability (RP) rank (MMP-9; [16]): 91823

**Q.** With PVPQ [P3-P1' tetramer cluster] as the substance, how does the “relative probability (RP)” value (MMP-9; [13]) read?
**A.** 29.84

**Q.** Which results are given for GVMQ?
**A.** Relative probability (RP) rank (MMP-9; [14]): 91467; relative probability (RP) (MMP-9; [14]): 0

**Q.** Which “relative probability (RP)” value (MMP-9; [2]) does the source give for TMNM here?
**A.** 6.67

**Q.** Which “relative probability (RP)” value (MMP-9; tetramer probability in MMP9 set / naive library, 200 nM protease, 2 h, 37°C) does the source give for PMPL [P3-P1' tetramer cluster] here?
**A.** 51.2509

**Q.** Which “relative probability (RP)” value (MMP-9; [13]) does the source give for PAPL [P3-P1' tetramer cluster] here?
**A.** 46.24
